# Measurements reported in patent US12569470B2, “Vasodilator and use thereof” (Bioradical Research Institute Corp., priority 2019, dated 2026).
# Legend:
# Assay type in all cases: cell-based
# rat neuroid cells B50 [1] = assay: Cytoprotection against singlet oxygen (Rose Bengal + G-LED), Alamar Blue fluorescence; details: 0, 12.5, 25, 50, or 100 μmol/1, RB 200 nmol/1 + G-LED 5 minutes, negative control being 100, FIG. 3
# Experimental: Edaravone, ED2AP and BisEp-C3 were examined for whether they had the function of alleviating neuronopathy. Specifically, singlet oxygen was generated by combining Rose Bengal (RB), which is a sensitizer, with green light (G-LED), and the function of alleviating the cytotoxicity of the generated singlet oxygen was examined with the cellular activity being an indicator.
# First, rat neuroid cells B50 were cultured in 12-well dishes at 2×10^5 cells/well (medium: RPMI-1640 medium containing 5% FCS) overnight. After the culturing, the medium of each well was replaced with HBSS (1,000 μl/well; phenol red-free Ca+, Mg+) containing 200 nmol/1 RB and edaravone, ED2AP, or BisEp-C3 having a predetermined concentration (0, 12.5, 25, 50, or 100 μmol/1). The dish was then irradiated with G-LED for 5 minutes to generate singlet oxygen. Thereafter, the medium of each well was replaced with 1,000 μl of HBSS, and Alamar Blue was added. The dish was then allowed to react for about 2 hours in an incubator at 37° C. and 5%CO2. After the reaction, fluorescence intensity (excitation wavelength: λ- 560 nm, fluorescence wavelength: λ-595 nm) was measured with a plate reader (infinite200, Tecan Trading AG). In this experimental system, the higher the cellular activity, the more Alamar Blue is taken up and the higher the fluorescence intensity. As a control, fluorescence intensity was measured in the same manner except that sodium azide (Azide, NaN3) was added instead of the compounds so as to achieve a concentration of 4 mmol/1. As a negative control (NC), fluorescence intensity was measured in the same manner except that RB was not added. The relative value of the fluorescence intensity in the sample to which each compound was added was calculated with the fluorescence intensity of the negative control being 100.
# rat neuroid cells B50 [2] = assay: Toxicity evaluation, cell viability by Alamar Blue; details: 12.5, 25, 50, 100, or 200 μmol/1, 24 hours, FIG. 5
# Experimental: Rat neuroid cells B50 were seeded in 12-well plates and then cultured. Edaravone (RC), ED2AP, or BisEp-C3 was added to each well so as to achieve a predetermined concentration (12.5, 25, 50, 100, or 200 μmol/1), and then incubated for 24 hours at 37° C. and 5% CO2. Cell viability in each well after the culture was measured using Alamar Blue.
# rat neuroid cells B50 [3] = assay: Toxicity evaluation on byproducts after reaction with singlet oxygen; details: byproducts after reaction with singlet oxygen, 50, 100, or 200 μmol/1, FIG. 6
# Experimental: In a cell-free system, the RB was added to media (5% FCS-containing RPMI-1640 media) containing edaravone, ED2AP, and BisEp-C3 having a predetermined concentration (50, 100, or 200 μmol/1) and then irradiated with LED (G-LED) at 525 nm to generate singlet oxygen, whereby reacting each compound with singlet oxygen. The cell viability was measured in the same manner as in Example 7(1), except that the culture solution after the reaction was used as a medium of the neuroid cell B50. As a negative control (NC), the cell viability was measured in the same manner except that each compound and […] were not added in the cell-free system. Further, as a control (RB), the cell viability was measured in the same manner except that each compound was not added and only […] was added in the cell-free system.
smiles,measurement,setting,value
"CC1=NN(c2ccccc2)C(=O)C1 [Edaravone, 3-methyl-1-phenyl-5-pyrazolone, reference compound]",relative value of the fluorescence intensity,rat neuroid cells B50 [1],not recovered
same,cell viability (cytotoxicity),rat neuroid cells B50 [2],not cytotoxic at any concentration
same,cell viability (cytotoxicity of byproducts),rat neuroid cells B50 [3],not cytotoxic at any concentration
